# Laboratory results reported in patent US20220184060A1, “PHARMACEUTICAL COMPOSITION COMPRISING SPHERICAL AGGLOMERATES OF TIMAPIPRANT” (Chiesi Farmaceutici S.p.A., priority 2018, published 2022).
# “And” between values parts separate entries of the source, which are not always exact repeats. Equal entries are not always repeated.
# Tests used:
# Assay type in all cases: physicochemical
# [1] = Specific surface area (SSA) by BET nitrogen adsorption (TriStar, Micromeritics); conditions: degassing 2 hours at 40° C.
# Description: The specific surface areas (SSA) of spherical agglomerates of timapiprant obtained according to Examples 3, 5,7 and the micronized timapiprant were measured was determined by BET nitrogen adsorption using the TriStar of Micromeritics apparatus according to following parameters: • Isotherm, Adsorbing/Desorbing Run: 0 to 1 p/p0 • Vials: ⅜ Inch, Degassing Pre-analysis: 2 hours at 40° C., Nitrogen as adsorbate • Preparation: Evacuation Rate 10 mmHg/s; Unrestricted evacuation from 5 mmHg • Vacuum setpoint: 10 mmHg, Evacuation time: 1 hour • Leak Test Duration: 120 s, Outgas Test Duration: 180 s • Measure p0 at intervals during the analysis, Enter the analysis bath temperature: […]77 kelvin • Equilibration Interval: 5 s; Minimum Equilibration Delay at p/p0≥0,995 per 600 s.
# [2] = Flowability of the blend material (API with tablet excipients) before compression; conditions: blend material of API with the excipients of Table 3; for Flow properties of the blend (in words): suitability for direct compression
# Description: The spherical agglomerates of timapiprant or the micronized timapiprant, together with the microcrystalline cellulose, the croscarmellose sodium, the poloxamer, the sodium lauryl sulphate and the colloidal silicon dioxide in the above amounts, are sieved in a sieve of 1.2 mm. The lactose monohydrate is then added, and the resulting mixture is blended in a free fall blender for at least 15 minutes. The magnesium stearate is added to the obtained mixture which is further blended in the free fall blender for additional 3 minutes.
# [3] = Primary particle size distribution by laser diffraction (Malvern Mastersizer 2000) after break up of spherical agglomerates; conditions: for PSD d (0.1), mean result / PSD d (0.5), mean result: mean of 10 acquisitions, primary particles after sonication in water; for PSD d (0.1) / PSD d (0.5): single acquisition (Measure 1-10), primary particles, agglomerates dispersed in water by 10 minutes sonication, 1500 rpm
# Description: The primary particle size distribution results are produced by means of a Malvern 2000 laser diffraction equipment by the analysis of the primary particles in suspension.
# The particle size distribution laser diffraction measures were performed using a Malvern Mastersizer 2000 equipped with a Hydro 2000S cell for the wet suspension of the Timapiprant primary particles. The spherical agglomerates obtained according to the Examples 3 and 5, were dispersed in water by means of 10 minutes sonication and then added to the cell, previously filled with water, until an obscuration within 5-10% was obtained.
SMILES,SSA (specific surface area) [1],SSA (specific surface area) ([1]; listed as micronized timapiprant),Flowability (s/100 g) [2],Flow properties of the blend (in words) [2],"PSD d (0.1), mean result [3] [μm]","PSD d (0.5), mean result [3] [μm]",PSD d (0.1) [3],PSD d (0.5) [3],Flowability (s/100 g) ([2]; listed as Spherical agglomerates of timapirpant) [sec s/100 g]
"Cc1c(Cc2ccc3ccccc3n2)c2cc(F)ccc2n1CC(=O)O [Micronized Timapiprant, reference compound]",8.0 m^2/g and 7.8 m^2/g,less than 8.5 m^2/g,∞,very poor flow properties,–,–,–,–,–
Cc1c(Cc2ccc3ccccc3n2)c2cc(F)ccc2n1CC(=O)O [Spherical agglomerates of timapiprant of Example 3] [5-fluoro-2-methyl-3-(quinolin-2-ylmethyl)-1H-indol-1-yl)acetic acid],13.1 m^2/g,–,–,–,0.28,0.56,0.28 μm and 0.275 μm and 0.278 μm and 0.279 μm,0.56 μm and 0.555 μm and 0.561 μm and 0.559 μm,–
Cc1c(Cc2ccc3ccccc3n2)c2cc(F)ccc2n1CC(=O)O [Spherical agglomerates of timapiprant of Example 5] [5-fluoro-2-methyl-3-(quinolin-2-ylmethyl)-1H-indol-1-yl)acetic acid],10.1 m^2/g,–,–,good flowability,0.31,0.64,0.314 μm and 0.315 μm,0.64 μm and 0.642 μm and 0.638 μm and 0.641 μm and 0.639 μm,4
Cc1c(Cc2ccc3ccccc3n2)c2cc(F)ccc2n1CC(=O)O [Spherical agglomerates of timapiprant of Example 7] [5-fluoro-2-methyl-3-(quinolin-2-ylmethyl)-1H-indol-1-yl)acetic acid],15.5 m^2/g,–,–,–,–,–,–,–,–
